For series [1] the following is noted: cited from earlier work.
For series [2], the system named is BCL-xL in OCI-LY10 cells. Briefly: Western blot for BCL-xL in ABC cell lines. Conditions: voruciclib 5 µM, venetoclax 50 nM or combination, 24 hours. It counts as cell-based. From the text: Error bars represent SEM.
ECL chemiluminescent substrate (Pierce) and autoradiographic film (ThermoFisher) were used for detection of signals. MCL-1 and BCL-xL signals were quantified using Image Studio Lite (LICOR Biosciences) using β actin for normalization. Student’s t-test was used to compare mean signal intensities across different conditions. The level of significance was set at 0.05.

The nature of series [3]: Tolerability and body weight in systemic efficacy studies. On the procedure: For systemic drug efficacy studies, mice were enrolled when tumors reached an average volume of 150–200 mm^3. Assignment to treatment groups was carried out via stratified randomization. Tumor dimensions were measured twice a week using digital calipers along with recording of body weight. Tumor volume was calculated using formula V = π/6 (length x width x height) in mm^3 [46]. Animals were removed from the study when either any one of the three measured dimensions of the tumor exceeded 2 cm, volume exceeded 2000 mm^3, ulceration was observed or if body weight loss greater than 20% was recorded. […] Control cohorts were administered vehicles of both drugs, and each single agent cohort was administered the vehicle of the other drug.

Series [4] deals with relapsed or refractory non-Hodgkin lymphoma (NHL). Further details: method as in PMID 28095146. Conditions: relapsed or refractory NHL patients, venetoclax alone; cited from earlier work.
Series [5] concerns the target T1, CDK1/cyc A (Homo sapiens, UniProt P06493).
T1 construct: purchased Reaction Biology Corp (contract assay)
In words: Reaction Biology radiometric filter binding kinase assay (10-point IC50 converted to Ki). It counts as biochemical. The settings on record: ATP near Km; Ki calculated from 10-point IC50. On the procedure:
(§1) Ki values for each target were calculated and compared for the two drugs (Fig. 1b–d).
(§2) The ATP concentration was near the Km values for the respective kinases. For each kinase, an IC50 value was calculated from a 10-point concentration curve of the test article and converted to Ki values.

In series [6] the target is T2, CDK1/cyc B (Homo sapiens, UniProt P06493).
T2 construct: purchased Reaction Biology Corp (contract assay)
T2 sequence (P06493 whole entry): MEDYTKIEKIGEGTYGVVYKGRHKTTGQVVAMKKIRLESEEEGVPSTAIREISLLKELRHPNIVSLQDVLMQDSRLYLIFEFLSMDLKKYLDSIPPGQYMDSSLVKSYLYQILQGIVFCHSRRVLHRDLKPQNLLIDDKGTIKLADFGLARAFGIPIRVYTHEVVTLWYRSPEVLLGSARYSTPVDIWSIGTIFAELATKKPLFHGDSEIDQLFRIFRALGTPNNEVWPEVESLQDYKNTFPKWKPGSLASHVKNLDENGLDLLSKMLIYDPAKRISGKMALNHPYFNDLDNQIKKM
T2 sequence (P14635 whole entry partner): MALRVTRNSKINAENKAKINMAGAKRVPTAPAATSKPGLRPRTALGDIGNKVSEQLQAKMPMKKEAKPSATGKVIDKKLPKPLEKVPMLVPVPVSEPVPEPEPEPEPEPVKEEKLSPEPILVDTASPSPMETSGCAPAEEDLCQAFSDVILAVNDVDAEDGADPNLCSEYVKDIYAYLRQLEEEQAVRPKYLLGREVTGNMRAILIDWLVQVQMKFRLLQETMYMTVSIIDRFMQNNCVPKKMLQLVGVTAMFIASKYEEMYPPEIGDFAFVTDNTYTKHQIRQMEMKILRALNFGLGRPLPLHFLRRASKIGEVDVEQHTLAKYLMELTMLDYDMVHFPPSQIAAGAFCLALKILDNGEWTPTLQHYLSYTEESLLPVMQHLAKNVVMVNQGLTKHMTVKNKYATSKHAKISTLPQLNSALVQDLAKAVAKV
The series is described as above. It counts as biochemical. The settings on record: ATP near Km; Ki calculated from 10-point IC50. As for the experimental part: as §1, §2

The target in series [7] is T3, CDK4/cyc D1 (Homo sapiens, UniProt P11802).
T3 construct: purchased Reaction Biology Corp (contract assay)
T3 sequence (P11802 whole entry): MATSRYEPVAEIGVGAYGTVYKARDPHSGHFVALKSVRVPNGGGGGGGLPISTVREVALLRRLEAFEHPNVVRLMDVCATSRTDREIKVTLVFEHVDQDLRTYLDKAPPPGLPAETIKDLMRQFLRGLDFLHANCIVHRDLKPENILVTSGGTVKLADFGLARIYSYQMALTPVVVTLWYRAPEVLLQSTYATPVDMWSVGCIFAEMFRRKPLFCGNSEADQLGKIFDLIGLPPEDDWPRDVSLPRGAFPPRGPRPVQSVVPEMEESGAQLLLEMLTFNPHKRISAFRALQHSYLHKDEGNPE
T3 sequence (P24385 whole entry partner): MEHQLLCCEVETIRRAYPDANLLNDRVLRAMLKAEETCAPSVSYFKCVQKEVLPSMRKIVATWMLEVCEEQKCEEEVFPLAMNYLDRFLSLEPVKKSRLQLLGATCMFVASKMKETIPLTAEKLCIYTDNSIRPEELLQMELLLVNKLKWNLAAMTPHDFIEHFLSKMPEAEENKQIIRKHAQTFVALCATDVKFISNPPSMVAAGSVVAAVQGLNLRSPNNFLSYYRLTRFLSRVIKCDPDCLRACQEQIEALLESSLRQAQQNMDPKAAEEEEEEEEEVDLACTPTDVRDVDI
The series is described as above. It counts as biochemical. The settings on record: ATP near Km; Ki calculated from 10-point IC50. As for the experimental part: as §1, §2

Series [8] concerns the target T4, CDK6/cyc D1 (Homo sapiens, UniProt Q00534).
T4 construct: purchased Reaction Biology Corp (contract assay)
The description is as above. It counts as biochemical. Conditions: ATP near Km; Ki calculated from 10-point IC50. On the procedure:
as §1, §2

Series [9] has as its target T5, ICK (Homo sapiens, UniProt Q9UPZ9).
T5 construct: purchased Reaction Biology Corp (contract assay)
T5 sequence (Q9UPZ9 1-632): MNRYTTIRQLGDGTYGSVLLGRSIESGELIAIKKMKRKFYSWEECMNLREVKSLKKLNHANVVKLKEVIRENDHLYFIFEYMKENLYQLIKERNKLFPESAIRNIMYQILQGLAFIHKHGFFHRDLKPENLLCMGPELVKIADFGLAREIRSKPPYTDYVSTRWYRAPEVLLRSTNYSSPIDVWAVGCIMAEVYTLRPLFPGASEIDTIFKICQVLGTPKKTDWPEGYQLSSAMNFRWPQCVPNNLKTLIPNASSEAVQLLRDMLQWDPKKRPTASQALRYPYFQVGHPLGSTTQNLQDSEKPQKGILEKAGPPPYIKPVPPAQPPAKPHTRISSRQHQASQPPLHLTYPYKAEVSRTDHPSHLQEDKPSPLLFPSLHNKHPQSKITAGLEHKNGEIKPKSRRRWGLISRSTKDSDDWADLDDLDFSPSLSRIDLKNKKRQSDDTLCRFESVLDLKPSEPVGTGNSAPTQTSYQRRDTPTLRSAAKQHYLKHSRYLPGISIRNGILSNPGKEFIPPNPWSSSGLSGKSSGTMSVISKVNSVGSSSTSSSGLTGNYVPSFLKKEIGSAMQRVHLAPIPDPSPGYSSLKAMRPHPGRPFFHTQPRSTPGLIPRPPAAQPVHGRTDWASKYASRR
The description is as above. It counts as biochemical. The settings on record: ATP near Km; Ki calculated from 10-point IC50. As for the experimental part:
as §1, §2

For series [10], the target named is T6, MAK (Homo sapiens, UniProt P20794).
T6 construct: purchased Reaction Biology Corp (contract assay)
T6 sequence (P20794 1-623): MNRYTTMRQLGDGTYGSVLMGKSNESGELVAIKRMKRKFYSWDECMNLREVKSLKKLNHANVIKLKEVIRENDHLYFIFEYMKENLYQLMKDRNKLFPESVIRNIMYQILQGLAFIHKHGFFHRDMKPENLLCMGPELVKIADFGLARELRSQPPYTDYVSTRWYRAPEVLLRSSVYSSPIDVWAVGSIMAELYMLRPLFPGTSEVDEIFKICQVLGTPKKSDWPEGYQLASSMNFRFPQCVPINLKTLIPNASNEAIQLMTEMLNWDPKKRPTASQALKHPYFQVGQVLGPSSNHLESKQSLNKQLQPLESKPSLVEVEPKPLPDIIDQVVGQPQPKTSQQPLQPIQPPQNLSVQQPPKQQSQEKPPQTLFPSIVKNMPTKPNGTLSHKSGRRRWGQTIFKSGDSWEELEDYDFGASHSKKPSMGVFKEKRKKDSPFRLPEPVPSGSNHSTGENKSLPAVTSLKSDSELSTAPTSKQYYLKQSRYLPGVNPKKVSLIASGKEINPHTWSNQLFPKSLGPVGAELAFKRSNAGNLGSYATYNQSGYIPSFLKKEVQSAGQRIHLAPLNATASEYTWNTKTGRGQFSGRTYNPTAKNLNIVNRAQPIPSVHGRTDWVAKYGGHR
The description is as above. It counts as biochemical. The settings on record: ATP near Km; Ki calculated from 10-point IC50. On the procedure:
as §1, §2

Series [11] can be described thus: Modelled plasma drug levels from Phase 1 pharmacokinetic data. Conditions: humans, 250 mg/day oral, modelled from Phase 1 PK data. On the procedure:
(Fig. 2a). Predicted mean plasma levels, once steady state is achieved after about 5 oral doses, fluctuate between 2 and 3.5 μM with an average near 3 μM for our model parameters. […] This was accompanied by apoptosis as represented by cleaved PARP induction starting at 1-2 μM in all models (Figs 2c, S2 and S5). Complete MCL-1 repression was typically observed at 3 μM exposures. […] Maximum, average and minimum plasma levels are shown by the red, green and blue lines respectively. The parameter set derived from the PK data after 13/15 days dosing was used for the 15-day simulation for the steady state levels attained after repeat dosing. (b) Western blot analyses for RNA POL II ([…]), MCL-1, cPARP using protein lysates isolated from SU-DHL-4 cells. β actin was used as the loading control. […] Tumors were resected 4 hours after the final dose and processed for both Western blot and IHC analyses. β actin was used as loading control for the Western blot where each lane represents an individual tumor (Tumor (T) #1-9). MCL-1 signals, normalized to β actin, were quantified and the average MCL-1 signal for each condition relative to vehicle is shown in the corresponding bar graph. Error bars represent standard error of the mean (SEM). […] DAPI was used as counterstain for IHC. Representative images are shown. Scale bar: 1000 μm.

For series [12], the system named is MCL-1 and cPARP in U2932, RIVA, OCI-LY10, NU-DHL-1, SU-DHL-4 and SU-DHL-6 cells. In words: Western blot for MCL-1 and cPARP in DLBCL cell lines. It counts as cell-based. Conditions: 0.5 µM–5 µM for 6 hours. On the procedure:
(§3) Maximum, average and minimum plasma levels are shown by the red, green and blue lines respectively. The parameter set derived from the PK data after 13/15 days dosing was used for the 15-day simulation for the steady state levels attained after repeat dosing. (b) Western blot analyses for RNA POL II (pSer2), MCL-1, cPARP using protein lysates isolated from SU-DHL-4 cells. β actin was used as the loading control. […] Tumors were resected 4 hours after the final dose and processed for both Western blot and IHC analyses. β actin was used as loading control for the Western blot where each lane represents an individual tumor (Tumor (T) #1-9). MCL-1 signals, normalized to β actin, were quantified and the average MCL-1 signal for each condition relative to vehicle is shown in the corresponding bar graph. Error bars represent standard error of the mean (SEM). Asterisks (*) denote p value < 0.05 calculated using the Student’s t-test for comparison of vehicle vs treatment. DAPI was used as counterstain for IHC. Representative images are shown. Scale bar: 1000 µm.
RI-1, also known as RIVA, U2932, NU-DHL-1 cell lines were purchased from DSMZ. SU-DHL-4, SU-DHL-6 were purchased from ATCC. All lines were cultured in RPMI 1640 with L-Glutamine (ThermoFisher),10% fetal bovine serum (Thermofisher), at 37 degrees Celsius, 5% CO2. […]
(In general: A western blot detects proteins with antibodies after separation by electrophoresis.)

In series [13] the test system is RNA POL II (pSer2). In words: Western blot for RNA POL II (pSer2) in SU-DHL-4 cells. It counts as cell-based.
Series [14] relates to MCL-1 in OCI-LY10 xenograft. Briefly: Western blot and IHC for MCL-1 in tumors after oral dosing. It counts as in vivo, mice. The settings on record: 100 mpk or 200 mpk oral daily for 5 days, tumors resected 4 hours after final dose. On the procedure:
as §3, with “µm. […]” for “µm.”

In series [15] the test system is BCL-xL in OCI-LY10 xenograft. In words: Western blot for BCL-xL in tumor lysates after oral dosing. The settings on record: 100 mpk or 200 mpk oral gavage for 5 days, compared to vehicle. It counts as in vivo, mice. From the text:
Each lane represents an individual tumor (Tumor (T) #1–9). BCL-xl signals, normalized to β actin, were quantified and the average BCL-xl signal for each condition relative to vehicle is shown in the corresponding bar graph. Error bars represent SEM. Asterisks (*) denote p value < 0.05 calculated using the Student’s t-test for comparison of vehicle vs treatment.
20 micrograms of protein lysate from each condition were subjected to SDS-PAGE and transferred to 0.45 micron PVDF membranes (ThermoFisher) using manufacturer’s protocol, blocked for one hour in 5% milk at room temperature, probed with primary antibodies for cPARP (rabbit CST 5625), MCL-1 (rabbit CST 39224) or BCL-xL (rabbit CST 2764), followed by corresponding HRP-conjugated secondary antibodies (Jackson ImmunoResearch). β actin (mouse CST 12262) was used as loading control. ECL chemiluminescent substrate (Pierce) and autoradiographic film (ThermoFisher) were used for detection of signals. MCL-1 and BCL-xL signals were quantified using Image Studio Lite (LICOR Biosciences) using β actin for normalization. Student’s t-test was used to compare mean signal intensities across different conditions. The level of significance was set at 0.05.

On the set-up of series [16]: method as in earlier work. Conditions: 350 mg/day, one patient out of 24; cited from earlier work.

Read-outs that look alike come from different tables or passages of the source.

T1 sequence (P06493 whole entry): as the sequence (P06493 whole entry) above
T1 sequence (P20248 whole entry partner): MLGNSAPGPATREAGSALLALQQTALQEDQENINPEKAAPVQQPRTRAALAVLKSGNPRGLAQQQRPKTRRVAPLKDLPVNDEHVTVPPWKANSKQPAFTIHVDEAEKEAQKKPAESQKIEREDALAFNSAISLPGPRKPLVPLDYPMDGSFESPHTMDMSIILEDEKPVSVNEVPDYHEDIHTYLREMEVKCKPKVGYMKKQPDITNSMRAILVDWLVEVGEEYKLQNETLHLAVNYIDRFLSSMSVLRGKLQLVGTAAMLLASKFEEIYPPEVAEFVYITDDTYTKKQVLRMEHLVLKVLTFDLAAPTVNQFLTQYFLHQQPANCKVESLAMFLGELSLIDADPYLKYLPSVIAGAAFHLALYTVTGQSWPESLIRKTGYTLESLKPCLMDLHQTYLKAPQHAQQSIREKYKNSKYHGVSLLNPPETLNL
T4 sequence (Q00534 whole entry): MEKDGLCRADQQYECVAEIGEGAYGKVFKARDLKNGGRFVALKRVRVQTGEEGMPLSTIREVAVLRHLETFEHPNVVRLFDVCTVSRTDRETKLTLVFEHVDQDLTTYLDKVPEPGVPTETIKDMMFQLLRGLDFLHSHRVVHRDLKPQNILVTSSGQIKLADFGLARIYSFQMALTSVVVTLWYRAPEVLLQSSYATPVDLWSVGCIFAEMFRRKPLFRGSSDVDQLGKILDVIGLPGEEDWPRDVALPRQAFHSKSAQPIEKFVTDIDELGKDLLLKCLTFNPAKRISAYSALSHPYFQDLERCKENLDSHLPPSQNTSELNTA
T4 sequence (P24385 whole entry partner): as the sequence (P24385 whole entry partner) above

For the compound `CCc1cnn2c(NCc3ccc[n+]([O-])c3)cc(N3CCCC[C@H]3CCO)nc12` [dinaciclib], in series [1], the oral bioavailability entry is reported as “neither of these two agents are orally bioavailable”.
As to `CC1(C)CCC(CN2CCN(c3ccc(C(=O)NS(=O)(=O)c4ccc(NCC5CCOCC5)c([N+](=O)[O-])c4)c(Oc4cnc5[nH]ccc5c4)c3)CC2)=C(c2ccc(Cl)cc2)C1` [Venetoclax, reference compound], the “BCL-xL levels in cell lysates” value in series [2] was “elevated levels of BCL-xL”. For the same compound, the “tolerability, toxicity and body weight changes” value in series [3] (xenografted mice (U2932, RIVA, OCI-LY10, NU-DHL-1, SU-DHL-4), oral regimens, first two cycles of treatment) is “not induce any significant body weight changes”. In series [4], the median progression-free survival was 1 month and the overall response rate is reported as 18%.
Broadly, the Ki is a dissociation constant, usually derived from enzyme kinetics or from competition with a known ligand. With `CN1CC[C@@H](c2c(O)cc(O)c3c(=O)cc(-c4ccc(C(F)(F)F)cc4Cl)oc23)[C@@H]1CO` [Voruciclib], the Ki in [5] is 9.1 nM; in series [6], 5.4 nM; in series [7], 3.96 nM; in series [8], 2.92 nM; in [9] it was 481 nM; in series [10], 259 nM. Besides, in [11], the “Predicted mean plasma levels at steady state (average)” value was approximately 3 µM. Also, the “exposure giving complete MCL-1 repression” value in series [12] (6 DLBCL models) was approximately 3 µM. The “concentration at which cleaved PARP induction (apoptosis) starts” value in series [12] (all 6 DLBCL models) lay in the range of 1 to 2 µM. The “phosphorylation of RNA POL II” value in series [13] was “inhibition of phosphorylation of RNA POL II”. Besides, the “MCL-1 protein expression in tumors” value in [14] is on record as “decreased in a dose-dependent manner”. Further, in series [15], the “BCL-xL levels in tumor lysates” value is on record as “elevated levels of BCL-xL”. In series [2], the “BCL-xL levels in cell lysates” value is listed as “elevated levels of BCL-xL”. For the same compound, in series [3] (mouse, in vivo, po), the “tolerability, toxicity and body weight changes” value is on record as “not induce any significant body weight changes”. Moreover, the “patients with dose-limiting diarrhea” value in [16] was 4%. In series [1] (has been shown, reference not given), the oral bioavailability result was “orally bioavailable”.
Take `CN1CC[C@H](c2c(O)cc(O)c3c(=O)cc(-c4ccccc4Cl)oc23)[C@H](O)C1` [Flavopiridol, reference compound]: the Ki in [9] is 11.8 nM; in [10], 1.08 nM. Besides, the oral bioavailability entry in [1] is “neither of these two agents are orally bioavailable”.

Values taken from article PMC5740070 (Scientific Reports, 2017).
